Experimental data: patent US20240270821A1, “GIP/GLP1/GCG TRI-RECEPTOR AGONISTS AND USES THEREOF” (priority 2023, published 2024)
Like-named read-outs stand apart in the source and are kept apart here. Starred links: 1 amine or outer side, 2 acyl side, 3 side chain; linkers in the order of their positions; H or OH if unused. Non-standard residues stand in square brackets, D forms with d. Residues, ends and D or L forms follow the SMILES beside them. Groups on a side chain read outwards from the residue. No end group written: not given here. *: point of attachment. C20 diacid = O=C(O)CCCCCCCCCCCCCCCCCCC(=O)*; C18 diacid = O=C(O)CCCCCCCCCCCCCCCCC(=O)*; αMePhe(2-F) = C[C@](N)(Cc1ccccc1F)C(=O)O; γGlu = O=C(O)[C@H](CCC(=O)[*:2])N[*:1]; αMe4Pal = C[C@](N)(Cc1ccncc1)C(=O)O; αMeY = C[C@](N)(Cc1ccc(O)cc1)C(=O)O; 4Pal = N[C@@H](Cc1ccncc1)C(=O)O; αMeL = CC(C)C[C@](C)(N)C(=O)O; αMeS = C[C@](N)(CO)C(=O)O; Orn = NCCC[C@H](N)C(=O)O; Dab = NCC[C@H](N)C(=O)O; AEEA = NCCOCCOCC(=O)O; Aib = CC(C)(N)C(=O)O

Key:
Type in all cases: cell-based
hGLP-1R [1] = target: T1, hGLP-1R (Homo sapiens, UniProt P43220); assay: Functional cAMP activity in the presence of 1% HSA; conditions: read-out: cAMP Rel EC50, hGLP-1R
hGIPR [2] = target: T2, hGIPR (Homo sapiens, UniProt P48546); assay: Functional cAMP activation in the presence of 0.1% casein (no HSA); conditions: read-out: Relative cAMP EC50, hGIPR;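 further: intracellular cAMP rise after 30 min at 37 °C read by HTRF against a standard curve, scaled between buffer alone (0%) and top control ligand concentration (100%), four-parameter fit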
T2 sequence (P48546 22-466): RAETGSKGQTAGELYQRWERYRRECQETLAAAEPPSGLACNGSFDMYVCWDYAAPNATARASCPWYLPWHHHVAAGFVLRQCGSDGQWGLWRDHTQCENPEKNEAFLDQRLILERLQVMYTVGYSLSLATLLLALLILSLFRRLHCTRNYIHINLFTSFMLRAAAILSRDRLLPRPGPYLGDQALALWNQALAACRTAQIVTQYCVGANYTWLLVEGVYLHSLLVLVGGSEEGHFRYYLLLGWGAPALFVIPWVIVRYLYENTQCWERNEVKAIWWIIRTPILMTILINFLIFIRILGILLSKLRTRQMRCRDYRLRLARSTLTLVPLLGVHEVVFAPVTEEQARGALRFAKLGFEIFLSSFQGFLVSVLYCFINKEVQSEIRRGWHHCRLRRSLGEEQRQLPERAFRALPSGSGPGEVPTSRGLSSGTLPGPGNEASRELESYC

hGLP-1R [3] = target: T1, hGLP-1R; assay: as above; conditions: read-out: Relative cAMP EC50, hGLP-1R
human GcgR = human GcgR (Homo sapiens, UniProt P47871); assay: Functional cAMP activity in the presence of 1% HSA; conditions: read-out: cAMP Rel EC50, hGcgR
hGcgR = hGcgR (Homo sapiens, UniProt P47871); assay: Functional cAMP activation in the presence of 0.1% casein (no HSA); conditions: read-out: Relative cAMP EC50, hGcgR;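 further: intracellular cAMP rise after 30 min at 37 °C, read by HTRF against a cAMP standard curve, scaled from buffer only (0%) to maximal control ligand response (100%)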
hGIPR [4] = target: T2, hGIPR; assay: Functional cAMP activity in the presence of 1% HSA; conditions: read-out: cAMP Rel EC50, hGIPR
[5] = in the presence of 0.1% casein (no HSA), geometric mean
[6] = 0.1% casein, no HSA, geometric mean
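Wherever Relative cAMP EC50, hGLP-1R is given: intracellular cAMP rise after 30 min at 37 °C read by HTRF, normalized between buffer only (0%) and maximal control ligand (100%), four-parameter variable-slope fit.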

T1 sequence (P43220 24-463): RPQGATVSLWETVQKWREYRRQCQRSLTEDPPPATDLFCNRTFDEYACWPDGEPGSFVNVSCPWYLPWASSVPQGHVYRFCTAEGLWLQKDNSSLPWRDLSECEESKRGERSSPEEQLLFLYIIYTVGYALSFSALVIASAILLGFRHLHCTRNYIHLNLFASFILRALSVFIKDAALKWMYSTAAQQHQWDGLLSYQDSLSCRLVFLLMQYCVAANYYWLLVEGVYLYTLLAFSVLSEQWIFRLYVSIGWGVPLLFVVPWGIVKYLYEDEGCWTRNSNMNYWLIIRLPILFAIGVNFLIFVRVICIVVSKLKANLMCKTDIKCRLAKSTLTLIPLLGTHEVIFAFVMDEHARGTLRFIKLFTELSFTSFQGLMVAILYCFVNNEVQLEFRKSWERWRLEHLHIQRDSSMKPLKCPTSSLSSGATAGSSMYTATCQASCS
Sequence of hGcgR (P47871 26-477): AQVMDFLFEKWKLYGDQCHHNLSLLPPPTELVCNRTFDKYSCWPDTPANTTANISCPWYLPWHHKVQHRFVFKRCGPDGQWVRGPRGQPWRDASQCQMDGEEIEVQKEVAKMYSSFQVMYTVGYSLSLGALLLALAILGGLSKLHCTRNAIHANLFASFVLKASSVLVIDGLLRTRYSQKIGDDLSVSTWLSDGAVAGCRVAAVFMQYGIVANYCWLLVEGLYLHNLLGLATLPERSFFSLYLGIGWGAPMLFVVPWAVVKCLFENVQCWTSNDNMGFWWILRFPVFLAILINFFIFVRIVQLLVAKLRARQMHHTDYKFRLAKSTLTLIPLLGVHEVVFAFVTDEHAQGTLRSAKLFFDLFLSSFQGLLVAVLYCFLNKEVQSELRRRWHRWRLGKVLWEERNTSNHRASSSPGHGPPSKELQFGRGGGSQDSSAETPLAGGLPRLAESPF
Sequence of human GcgR (P47871 26-477): as above

Row | EC50 (hGLP-1R [1]) [nM] | EC50 (human GcgR) [nM] | EC50 (hGIPR [4]) [nM] | EC50 (hGIPR [2]) [nM] | EC50 (hGLP-1R [3]) [nM] | EC50 (hGcgR) [nM] | EC50 (hGIPR [2]; [6]) [nM] | EC50 (hGLP-1R [3]; [6]) [nM] | EC50 (hGcgR; [6]) [nM] | Compound | EC50 (hGIPR [2]; [5]) [nM] | EC50 (hGLP-1R [3]; [5]) [nM] | EC50 (hGcgR; [5]) [nM]
1 | 51 | 265 | 7.1 | 0.129 | 0.867 | 3.93 | – | – | – | H-Y[Aib]QGT[αMePhe(2-F)]TSD[4Pal][αMeS]I[αMeL]LD[Orn]K([γGlu-γGlu-C18 diacid])AQ[Aib][Orn]FI[dE][αMeY]LSEGGPSSGEPPPSGTGE-NH2 [Example 518] | – | – | –
2 | 27.7 | 237 | 7.26 | 0.152 | 0.337 | 3.8 | – | – | – | H-Y[Aib]QGT[αMePhe(2-F)]TSD[4Pal][αMeS]ILLD[Orn]K([γGlu-γGlu-C18 diacid])AQ[Aib][Orn]FI[dE][αMeY]LQEGGPSSGEPPPSGAE-NH2 [Example 547] | – | – | –
3 | 27.6 | 119 | 0.692 | 0.00882 | 0.273 | 3.09 | – | – | – | Y[Aib]QGT[αMePhe(2-F)]TSD[4Pal][αMeS]I[αMeL]LD[Orn]K([γGlu-γGlu-C18 diacid])AQ[αMe4Pal]EFI[dE][αMeY]LIEGGPSSGEPPPEGGGE-NH2 [Example 762] | – | – | –
4 | 14.6 | 90.2 | 1.29 | 0.0131 | 0.164 | 1.34 | – | – | – | H-Y[Aib]QGT[αMePhe(2-F)]TSD[4Pal][αMeS]I[αMeL]LD[Orn]K([AEEA-γGlu-C18 diacid])AQ[Aib][Orn]FIEYLIEGGPSSGEPPPEEG-NH2 [Example 476] | – | – | –
5 | 218 | 2280 | 52.6 | – | – | – | – | – | – | Y[Aib]QGTFTSDYSI[αMeL]LDKQAAK([AEEA-AEEA-γGlu-C20 diacid])QFIEYLIA[Aib]GPSSGEPPPSEG-NH2 [Example 349] | 0.152 | 0.555 | 5.12
6 | 26.1 | 233 | 2.02 | 0.0518 | 0.525 | 3.98 | – | – | – | Y[Aib]QGT[αMePhe(2-F)]TSD[4Pal][αMeS]I[αMeL]LD[Orn]K([γGlu-γGlu-C18 diacid])AQ[Aib][Orn]FI[dE][αMeY]LQEGGPSSGEPPPEGTE-NH2 [Example 503] | – | – | –
7 | 66.2 | 202 | 0.803 | – | – | – | 0.00897 | 0.544 | 1.56 | Y[Aib]QGT[αMePhe(2-F)]TSD[4Pal][αMeS]I[αMeL]LD[Orn]K([AEEA-γGlu-C18 diacid])AQ[αMe4Pal]EFI[dE][αMeY]LIEGGPPS[Aib]EPPP[Orn]GE-NH2 [Example 1193] | – | – | –
8 | 515 | 267 | 11.7 | – | – | – | – | – | – | H-Y[Aib]QGTFTSD[4Pal]S[Orn][αMeL]LDKK([AEEA-γGlu-γGlu-C18 diacid])AQ[αMe4Pal]AFIE[αMe4Pal]LIE[Aib]GPSSGEPPPSGS-NH2 [Example 987] | 0.194 | 6.33 | 3.62

Row | Compound | EC50 (hGLP-1R [1]) [nM] | EC50 (human GcgR) [nM] | EC50 (hGIPR [4]) [nM] | EC50 (hGIPR [2]) [nM] | EC50 (hGLP-1R [3]) [nM] | EC50 (hGcgR) [nM] | EC50 (hGIPR [2]; [6]) [nM] | EC50 (hGLP-1R [3]; [6]) [nM] | EC50 (hGcgR; [6]) [nM] | EC50 (hGIPR [2]; [5]) [nM] | EC50 (hGLP-1R [3]; [5]) [nM] | EC50 (hGcgR; [5]) [nM]
9 | CC[C@H](C)[C@H](NC(=O)[C@H](Cc1ccccc1)NC(=O)[C@H](C)NC(=O)C(C)(C)NC(=O)[C@H](CCC(N)=O)NC(=O)[C@H](C)NC(=O)[C@H](CCCCNC(=O)COCCOCCNC(=O)COCCOCCNC(=O)CC[C@H](NC(=O)CCCCCCCCCCCCCCCCCCC(=O)O)C(=O)O)NC(=O)[C@H](CCCCN)NC(=O)[C@H](CC(=O)O)NC(=O)[C@H](CC(C)C)NC(=O)[C@H](CC(C)C)NC(=O)[C@@H](NC(=O)[C@H](CO)NC(=O)[C@H](Cc1ccc(O)cc1)NC(=O)[C@H](CC(=O)O)NC(=O)[C@H](CO)NC(=O)[C@@H](NC(=O)[C@](C)(Cc1ccccc1F)NC(=O)[C@@H](NC(=O)CNC(=O)[C@H](CCC(N)=O)NC(=O)C(C)(C)NC(=O)[C@@H](N)Cc1ccc(O)cc1)[C@@H](C)O)[C@@H](C)O)[C@@H](C)CC)C(=O)N[C@@H](CCC(=O)O)C(=O)N[C@@H](Cc1ccc(O)cc1)C(=O)N[C@@H](CC(C)C)C(=O)N[C@@H](CC(C)C)C(=O)N[C@@H](CCC(=O)O)C(=O)NCC(=O)NCC(=O)N1CCC[C@H]1C(=O)N[C@@H](CO)C(=O)N[C@@H](CO)C(=O)NCC(=O)N[C@@H](C)C(=O)N1CCC[C@H]1C(=O)N1CCC[C@H]1C(=O)N1CCC[C@H]1C(=O)N[C@@H](CO)C(N)=O [Example 385] | 86.1 | 700 | 4.03 | – | – | – | – | – | – | 0.0141 | 0.235 | 1
10 | H-Y[Aib]QGTFTSDFS[Dab][αMeL]LDKK([AEEA-γGlu-C18 diacid])AQ[Aib]AFIEYLIE[Aib]GPSSGAPPPSGS-NH2 [Example 799] | 179 | 574 | 18.4 | – | – | – | – | – | – | 0.0668 | 0.462 | 1.64
11 | H-Y[Aib]QGTFTSD[4Pal]S[Orn][αMeL]LD[Orn]K([γGlu-γGlu-C18 diacid])AQ[αMe4Pal]QFIEYLIAGGPSSGAPPPSGSEE-NH2 [Example 1000] | 279 | 501 | 15.5 | – | – | – | – | – | – | 0.176 | 3.55 | 4.62
12 | H-Y[Aib]QGTFTSD[4Pal]S[Orn][αMeL]LDKK([AEEA-γGlu-C18 diacid])AQ[αMe4Pal]AFIE[αMe4Pal]LIEGGPSSGAPPPSGSEE-NH2 [Example 955] | 1380 | 366 | 42.3 | – | – | – | – | – | – | 0.386 | 7.74 | 2.65
13 | CC[C@H](C)[C@H](NC(=O)[C@H](CC(C)C)NC(=O)[C@](C)(Cc1ccc(O)cc1)NC(=O)[C@@H](CCC(=O)O)NC(=O)[C@@H](NC(=O)[C@H](Cc1ccccc1)NC(=O)[C@H](CCC(=O)O)NC(=O)C(C)(C)NC(=O)[C@H](C)NC(=O)[C@H](C)NC(=O)[C@H](CCCCNC(=O)COCCOCCNC(=O)CC[C@H](NC(=O)CCCCCCCCCCCCCCCCC(=O)O)C(=O)O)NC(=O)[C@H](CCCN)NC(=O)[C@H](CC(=O)O)NC(=O)[C@H](CC(C)C)NC(=O)[C@](C)(CC(C)C)NC(=O)[C@@H](NC(=O)[C@](C)(CO)NC(=O)[C@H](Cc1ccncc1)NC(=O)[C@H](CC(=O)O)NC(=O)[C@H](CO)NC(=O)[C@@H](NC(=O)[C@](C)(Cc1ccccc1F)NC(=O)[C@@H](NC(=O)CNC(=O)[C@H](CCC(N)=O)NC(=O)C(C)(C)NC(=O)[C@@H](N)Cc1ccc(O)cc1)[C@@H](C)O)[C@@H](C)O)[C@@H](C)CC)[C@@H](C)CC)C(=O)N[C@@H](CCC(=O)O)C(=O)NCC(=O)NCC(=O)N1CCC[C@H]1C(=O)N[C@@H](CO)C(=O)N[C@@H](CO)C(=O)NCC(=O)N[C@@H](C)C(=O)N1CCC[C@H]1C(=O)N1CCC[C@H]1C(=O)N1CCC[C@H]1C(=O)N[C@@H](CO)C(=O)NCC(=O)N[C@@H](CO)C(=O)N[C@@H](CCC(=O)O)C(N)=O [Example 702] | 28.4 | 196 | 1.25 | 0.0116 | 0.243 | 1.5 | – | – | – | – | – | –
14 | H-Y[Aib]QGTFTSD[4Pal]SR[αMeL]LDKK([AEEA-γGlu-C18 diacid])AQ[Aib]AFIE[αMeY]LLEGGPSSGAPPPSGS-NH2 [Example 909] | 243 | 1740 | 20.2 | – | – | – | – | – | – | 0.121 | 1.72 | 6.82
15 | CC[C@H](C)[C@H](NC(=O)[C@H](CCCCN)NC(=O)[C@H](CC(=O)O)NC(=O)[C@H](CC(C)C)NC(=O)[C@H](CC(C)C)NC(=O)[C@@H](NC(=O)[C@H](CO)NC(=O)[C@H](Cc1ccc(O)cc1)NC(=O)[C@H](CC(=O)O)NC(=O)[C@H](CO)NC(=O)[C@@H](NC(=O)[C@](C)(Cc1ccccc1F)NC(=O)[C@@H](NC(=O)CNC(=O)[C@H](CCC(N)=O)NC(=O)C(C)(C)NC(=O)[C@@H](N)Cc1ccc(O)cc1)[C@@H](C)O)[C@@H](C)O)[C@@H](C)CC)C(=O)N[C@@H](C)C(=O)N[C@@H](CCC(N)=O)C(=O)NC(C)(C)C(=O)N[C@@H](C)C(=O)N[C@@H](Cc1ccccc1)C(=O)N[C@H](C(=O)N[C@@H](CCCCNC(=O)COCCOCCNC(=O)CC[C@H](NC(=O)CCCCCCCCCCCCCCCCC(=O)O)C(=O)O)C(=O)N[C@@H](Cc1ccc(O)cc1)C(=O)N[C@@H](CC(C)C)C(=O)N[C@@H](CCC(=O)O)C(=O)N[C@@H](CCC(=O)O)C(=O)NCC(=O)NCC(=O)N1CCC[C@H]1C(=O)N[C@@H](CO)C(=O)N[C@@H](CO)C(=O)NCC(=O)N[C@@H](C)C(=O)N1CCC[C@H]1C(=O)N1CCC[C@H]1C(=O)N1CCC[C@H]1C(=O)N[C@@H](CO)C(N)=O)[C@@H](C)CC [Example 430] (H-Y[Aib]QGT[αMePhe(2-F)]TSDYSILLDKIAQ[Aib]AFIK([AEEA-γGlu-C18 diacid])YLEEGGPSSGAPPPS-NH2; N-terminus assumed) | 78.9 | 559 | 4.65 | 0.0144 | 0.438 | 2.11 | – | – | – | – | – | –
